Data set [1] is described as follows: Metabolic stability in human serum assessed as half time of disappearance at 1 mM by MALDI-TOF mass spectrometry assay. The data set is classed as ADME, cell-free. As to conditions: read-out: T50.
Data set [2] is described as follows: Metabolic stability in rat serum assessed as half time of disappearance at 1 mM by MALDI-TOF mass spectrometry assay. The data set is classed as ADME, cell-free. The conditions noted are these: read-out: T50.
The target of data set [3] is T1, Neurotensin receptor type 1 (Homo sapiens, UniProt P30989). Nature of the data set: Displacement of [125I]I-Tyr(3)NT from human NTR1. In general terms: Displacement assays read how much labelled ligand stays bound in the presence of the test substance.
T1 sequence (P30989 whole entry): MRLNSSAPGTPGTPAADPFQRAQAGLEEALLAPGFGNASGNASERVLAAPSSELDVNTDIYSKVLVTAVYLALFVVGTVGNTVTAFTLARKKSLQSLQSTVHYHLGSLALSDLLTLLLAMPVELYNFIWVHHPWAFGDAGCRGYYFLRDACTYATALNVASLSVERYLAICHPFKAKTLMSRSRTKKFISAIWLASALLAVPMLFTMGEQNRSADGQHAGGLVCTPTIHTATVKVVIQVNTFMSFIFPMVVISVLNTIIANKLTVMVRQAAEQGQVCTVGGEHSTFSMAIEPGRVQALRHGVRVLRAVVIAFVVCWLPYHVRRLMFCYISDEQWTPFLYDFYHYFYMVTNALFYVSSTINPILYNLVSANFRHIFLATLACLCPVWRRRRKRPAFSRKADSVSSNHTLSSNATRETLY
The target in data set [4] is T1, Neurotensin receptor type 1. Nature of the data set: Agonist activity at NTR1 in human HT-29 cells assessed as increase in intracellular calcium concentration by FLIPR assay. The data set is classed as functional, cell-based. (In general: Calcium assays in cells follow changes in intracellular calcium, usually with a dye or a luminescent sensor.)
In data set [5] the test system is Rattus norvegicus. Kind of data set: Hypothermic activity in Sprague-Dawley rat assessed as time duration of maximal body temperature decrease at 5 mg/kg, ip. The data set is classed as functional. As to conditions: route intraperitoneal.
Data set [6] relates to Rattus norvegicus. Nature of the data set: Hypothermic activity in Sprague-Dawley rat assessed as decrease in core body temperature at 5 mg/kg, ip at time of maximal body temperature decrease. The data set is classed as functional. As to conditions: route intraperitoneal.
Data set [7] concerns the target T1, Neurotensin receptor type 1. Kind of data set: Binding affinity to human NTR1.
Data set [8] has as its system Serum. Nature of the data set: Metabolic stability in human serum assessed as compound degradation rate at 1 mM by MALDI-TOF mass spectrometry assay. The class given is ADME, cell-free. As to conditions: 1000 µM.
For data set [9], the system named is Serum. Kind of data set: Metabolic stability in rat serum assessed as compound degradation rate at 1 mM by MALDI-TOF mass spectrometry assay. The class given is ADME, cell-free. As to conditions: 1000 µM.
Data set [10] concerns Rattus norvegicus. Kind of data set: Hypothermic activity in Sprague-Dawley rat assessed as decrease in core body temperature at 5 mg/kg, ip measured up to 150 mins. Also on record: dose 5 mg/kg. The class given is functional, organism-based.
Data set [11] concerns the target T1, Neurotensin receptor type 1. Nature of the data set: Agonist activity at NTR1 in human HT-29 cells assessed as increase in intracellular calcium concentration in presence of NTR1 antagonist SR-48692 by FLIPR assay. The data set is classed as functional, cell-based.

Activity calls are given as the source filed them. The rule behind the calls is not given here. Non-standard residues stand in square brackets, D forms with d. Residues, ends and D or L forms follow the SMILES beside them. *: point of attachment. X1 = [N-]=[N+]=N[C@@H](CCCNC(=N)N)C(=O)*; X2 = [N-]=[N+]=N[C@@H](CCCCN)CC(=O)*; NMeR = CN[C@@H](CCCNC(=N)N)C(=O)O; Tle = CC(C)(C)[C@H](N)C(=O)O; X3 = C[C@](N)(CCCCN)CC(=O)*; β3hK = NCCCC[C@H](N)CC(=O)O

As for `CC(C)C[C@H](NC(=O)[C@@H](NC(=O)[C@H](Cc1ccc(O)cc1)NC(=O)[C@@H]1CCCN1C(=O)[C@H](CCCNC(=N)N)NC(=O)C[C@@](C)(N)CCCCN)C(C)(C)C)C(=O)O` (X3-RPY[Tle]L-OH), the half-life at 1000 µM in data set [1] was found to be 42.8 h; in data set [2], 49.7 h. In data set [3], the IC50 (commonly the concentration at which inhibition is half-maximal) was 13.9 nM. Further, the Ki – broadly, a measure of affinity in units of concentration, obtained from inhibition or displacement – in data set [3] was 10.4 nM; in [7] it was 9.9 nM. In [4], the EC50 – broadly, the midpoint of the concentration-response curve – was 6.44 nM. Further, the Time with Rattus norvegicus [5] turned out to be 150 min. For the same compound, the Activity in the data set on Rattus norvegicus [6] was -2.13 °C; in the data set with Serum [8], 0.194 µmol/min; in the data set on Serum [9], 0.166 µmol/min.

As for `O=C(CCCN1CCC(O)(c2ccc(Cl)cc2)CC1)c1ccc(F)cc1` [HALOPERIDOL], in the data set with Rattus norvegicus [5], the Time is reported as 90 min. For the same compound, the Activity with Rattus norvegicus [6] was -1.34 °C. In the data set on Rattus norvegicus [10], the outcome was Active.

Take `CC(C)C[C@H](NC(=O)[C@@H](NC(=O)[C@H](Cc1ccc(O)cc1)NC(=O)[C@@H]1CCCN1C(=O)[C@H](CCCNC(=N)N)NC(=O)C[C@@H](N)CCCCN)C(C)(C)C)C(=O)O` (H-[β3hK]RPY[Tle]L-OH): the half-life at 1000 µM in [1] is 0.25 h; in [2] it was 0.21 h. In data set [3], the IC50 worked out at 10.8 nM. Also, in data set [3], the Ki turned out to be 8.07 nM. The EC50 in data set [4] was determined as 6.21 nM. Further, the outcome in data set [11] was inactive. In addition, in the data set with Rattus norvegicus [5], the Time stood at 90 min. Besides, the Activity was -1.53 °C with Rattus norvegicus [6], 33.4 µmol/min with Serum [8] and 39.9 µmol/min in the data set with Serum [9].

As to `CC(C)C[C@H](NC(=O)[C@@H](NC(=O)[C@H](Cc1c[nH]c2ccccc12)NC(=O)[C@@H]1CCCN1C(=O)[C@H](CCCCN)NC(=O)[C@H](CCCNC(=N)N)N=[N+]=[N-])C(C)(C)C)C(=O)O` (X1-KPW[Tle]L-OH), the half-life at 1000 µM was 120 h in [1] and 67.8 h in [2]. Besides, the half-maximal inhibitory concentration (IC50) in data set [3] was 140 nM. This compound also registered a Ki in data set [3] of 105 nM. The EC50 in data set [4] amounted to 151 nM. The outcome in data set [11] was inactive. Moreover, the Time in the data set on Rattus norvegicus [5] was determined as 240 min. Further, the results for the Activity in the data set with Rattus norvegicus [6], in the data set with Serum [8] and in the data set with Serum [9] were -4.29 °C, 0.07 µmol/min and 0.123 µmol/min, respectively.

On to `CC(C)C[C@H](NC(=O)[C@@H](NC(=O)[C@H](Cc1ccc(O)cc1)NC(=O)[C@@H]1CCCN1C(=O)[C@H](CCCNC(=N)N)NC(=O)C[C@H](CCCCN)N=[N+]=[N-])C(C)(C)C)C(=O)O` (X2-RPY[Tle]L-OH), for which the half-life at 1000 µM in data set [1] stood at 62.7 h; in [2], 52 h. In data set [3], this compound showed a half-maximal inhibitory concentration (IC50) of 7.32 nM. Also, the Ki was 5.49 nM in data set [3] and 4.5 nM in [7]. In [4], the EC50 worked out at 7.28 nM. In addition, the Time in the data set with Rattus norvegicus [5] is 120 min. Further, the Activity in the data set with Rattus norvegicus [6] is -2.57 °C; in the data set on Serum [8], 0.133 µmol/min; in the data set on Serum [9] it was 0.16 µmol/min.

Take `CN[C@@H](CCCNC(=N)N)C(=O)N[C@@H](CCCCN)C(=O)N1CCC[C@H]1C(=O)N[C@@H](Cc1c[nH]c2ccccc12)C(=O)N[C@H](C(=O)N[C@@H](CC(C)C)C(=O)O)C(C)(C)C` (H-[NMeR]KPW[Tle]L-OH): the half-life at 1000 µM is 123 h in [1] and 162 h in data set [2]. Further, the concentration for half-maximal inhibition (IC50) in [3] was found to be 240 nM. In addition, the Ki in [3] is 180 nM; in [7], 95 nM. Also, in data set [4], the EC50 amounted to 200 nM. The Time in the data set with Rattus norvegicus [5] was 270 min. Besides, the Activity with Rattus norvegicus [6] is -5.52 °C; with Serum [8], 0.068 µmol/min; in the data set with Serum [9] it was 0.052 µmol/min.

(Values after ChEMBL document CHEMBL1153387 (J Med Chem, 2009).)
